The source of these data is the supplement of paper PMC10307832.

What all share (experiment): relative viability (nuclei count vs DMSO), 5 days (fraction); higher = more cells survive
Compound in test [1]: C=CCn1c(=O)c2cnc(Nc3ccc(N4CCN(C)CC4)cc3)nc2n1-c1cccc(C(C)(C)O)n1 [Adavosertib] + CC(=O)c1c(C)c2cnc(Nc3ccc(N4CCNCC4)cn3)nc2n(C2CCCC2)c1=O [Palbociclib] (partner 0.5 µM)
The essentials:
(§1)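 Values are medians from duplicate plates. Each reflects relative viability, defined as the nuclei count of treated wells over that of vehicle wells. Lung cancer cell lines in 1536-well plates were pin-tool dosed one day after seeding with one drug alone or with a fixed anchor-drug dose plus five library-drug doses (not always all listed) in √10 steps, then fixed, stained and imaged at 4× after 5 days.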

Compound in test [2]: C=CCn1c(=O)c2cnc(Nc3ccc(N4CCN(C)CC4)cc3)nc2n1-c1cccc(C(C)(C)O)n1 [Adavosertib] + CCNC(=O)c1noc(-c2cc(C(C)C)c(O)cc2O)c1-c1ccc(CN2CCOCC2)cc1 [Luminespib] (partner 0.01 µM)
In a few lines:
as §1

Compound in test [3]: C=CCn1c(=O)c2cnc(Nc3ccc(N4CCN(C)CC4)cc3)nc2n1-c1cccc(C(C)(C)O)n1 [Adavosertib] + C[C@@H](Oc1cc(-c2cnn(C3CCNCC3)c2)cnc1N)c1c(Cl)ccc(F)c1Cl [Crizotinib] (partner 1 µM)
The essentials: as §1

Compound in test [4]: C=CCn1c(=O)c2cnc(Nc3ccc(N4CCN(C)CC4)cc3)nc2n1-c1cccc(C(C)(C)O)n1 [Adavosertib] + Cc1nc(NC(=O)N2CCC[C@H]2C(N)=O)sc1-c1ccnc(C(C)(C)C(F)(F)F)c1 [Alpelisib] (partner 2 µM)
The essentials:
as §1

Compound in test [5]: C=CCn1c(=O)c2cnc(Nc3ccc(N4CCN(C)CC4)cc3)nc2n1-c1cccc(C(C)(C)O)n1 [Adavosertib] + N=C(N)NC(=N)NCCc1ccccc1 [Phenformin] (partner 250 µM)
The essentials:
as §1

EMC-BAC-2: the relative viability in test [1] (first compound 0.03162 µM) came to 0.542; in test [1] (first compound 0.1 µM), 0.516; in test [1] (first compound 0.3162 µM), 0.487; in test [2] (first compound 0.01 µM) it was 1.14; in test [2] (first compound 0.03162 µM), 1.25; in test [2] (first compound 0.1 µM), 1.18. For the same cell line, the relative viability in test [2] (first compound 0.3162 µM) was determined as 1.11; in test [3] (first compound 0.01 µM), 0.846; in test [3] (first compound 0.03162 µM), 0.754; in test [3] (first compound 0.1 µM), 0.887; in test [3] (first compound 0.3162 µM), 0.811; in test [4] (first compound 0.01 µM) it was 0.736. Also, the relative viability in test [4] (first compound 0.03162 µM) was found to be 0.737; in test [4] (first compound 0.1 µM), 0.722; in test [4] (first compound 0.3162 µM), 0.678; in test [5] (first compound 0.01 µM), 0.547; in test [5] (first compound 0.03162 µM), 0.557; in test [5] (first compound 0.1 µM) it was 0.519. For the same cell line, the relative viability in test [5] (first compound 0.3162 µM) was found to be 0.479.
